Source: publication PMC11371747, “The role of l-leucovorin uptake and metabolism in the modulation of 5-fluorouracil efficacy and antifolate toxicity” (Frontiers in Pharmacology, 2024)
Values joined by “and” are separate entries in the source; they are usually repeats but may differ in a detail not shown here. Equal values may be shown once. Read-outs that look alike come from different tables or passages of the source.

Columns and labels:
human PCFT = molecular target: T1, human PCFT (Homo sapiens, UniProt Q96NT5); experiment: Inhibition of PCFT-mediated [3H]-l-LV influx in CHO/C5-PCFT cells; format: cell-based, Chinese hamster (CHO cells)
T1 construct: expressed in transfected cells; host or cells: CHO/C5 (RFC-deficient Chinese hamster ovary cells, no PCFT)
T1 sequence (Q96NT5 1-459): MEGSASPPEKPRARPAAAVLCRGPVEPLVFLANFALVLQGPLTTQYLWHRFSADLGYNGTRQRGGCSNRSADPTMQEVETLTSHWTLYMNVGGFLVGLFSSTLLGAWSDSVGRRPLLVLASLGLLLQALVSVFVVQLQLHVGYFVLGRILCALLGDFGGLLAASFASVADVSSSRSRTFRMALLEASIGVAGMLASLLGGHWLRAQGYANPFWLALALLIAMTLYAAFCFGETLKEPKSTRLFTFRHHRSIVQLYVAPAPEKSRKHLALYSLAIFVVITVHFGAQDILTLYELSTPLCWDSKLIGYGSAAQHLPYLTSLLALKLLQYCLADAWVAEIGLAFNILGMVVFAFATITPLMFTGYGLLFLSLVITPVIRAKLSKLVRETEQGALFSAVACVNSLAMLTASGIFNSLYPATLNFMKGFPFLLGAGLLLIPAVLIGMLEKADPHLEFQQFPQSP
Procedure: (§1) In order to determine whether the LV isomers were substrates for either folate receptor α (FRα), RFC and/or PCFT, we used model systems with established overexpression of these receptors or transporters ([Westerhof et al., 1995a]; [Westerhof et al., 1995b]; [Lasry et al., 2008]; [Van der Heijden et al., 2009]).
The competitive inhibition by 2.5 μM [^3H]-l-LV influx of PCFT was measured essentially as described for the RFC assay, except that the incubation time was 3 min, at pH 5.5 (the optimal pH for PCFT) and pH 7.4 with increasing amounts of unlabelled LV stereoisomers/antifolate drug. For PCFT too, relative affinities were expressed as the concentration of unlabelled drug necessary to inhibit 50% of [^3H]-l-LV influx.

folate receptor α (FRα) = molecular target: T2, folate receptor α (FRα) (Homo sapiens, UniProt P15328); experiment: Intact cell competitive binding assay, displacement of [3H]-folic acid from FRα in KB cells
T2 construct: endogenous in cells; host or cells: KB cells (FRα++)
Procedure: as §1
For FRα we used KB cells ([Westerhof et al., 1995b]). An intact cell binding assay for competitive binding was performed as described previously ([Westerhof et al., 1995a]). Briefly, cells were washed with Hanks balanced salt solution and 6 mM glucose (HBSS, pH 7.4), suspended in 1 mL of this solution (1*10^6 for KB cells) and incubated at 4°C for 15 min with 100 pmol [^3H]-folic acid [(^3H)-FA], in the presence and absence of unlabelled folic acid or LV stereoisomers. Cells were collected by centrifugation and analysed for radioactivity. Relative affinities for FRα were defined as the inverse ratio of compound to displace 50% of radioactive folic acid from FRα. The relative affinity of folic acid was set at 1.

[1] = molecular target: T3, reduced folate carrier (RFC/SLC19A1) (Homo sapiens, UniProt P41440); experiment: Inhibition of RFC-mediated [3H]-l-LV influx in CEM-7A cells; format: cell-based
T3 construct: CEM-7A cells, which display 30-fold RFC overexpression relative to wild-type CCRF-CEM cells; endogenous in cells; host or cells: CEM-7A (CCRF-CEM variant, RFC+++ 30-fold)
T3 sequence (P41440 1-591): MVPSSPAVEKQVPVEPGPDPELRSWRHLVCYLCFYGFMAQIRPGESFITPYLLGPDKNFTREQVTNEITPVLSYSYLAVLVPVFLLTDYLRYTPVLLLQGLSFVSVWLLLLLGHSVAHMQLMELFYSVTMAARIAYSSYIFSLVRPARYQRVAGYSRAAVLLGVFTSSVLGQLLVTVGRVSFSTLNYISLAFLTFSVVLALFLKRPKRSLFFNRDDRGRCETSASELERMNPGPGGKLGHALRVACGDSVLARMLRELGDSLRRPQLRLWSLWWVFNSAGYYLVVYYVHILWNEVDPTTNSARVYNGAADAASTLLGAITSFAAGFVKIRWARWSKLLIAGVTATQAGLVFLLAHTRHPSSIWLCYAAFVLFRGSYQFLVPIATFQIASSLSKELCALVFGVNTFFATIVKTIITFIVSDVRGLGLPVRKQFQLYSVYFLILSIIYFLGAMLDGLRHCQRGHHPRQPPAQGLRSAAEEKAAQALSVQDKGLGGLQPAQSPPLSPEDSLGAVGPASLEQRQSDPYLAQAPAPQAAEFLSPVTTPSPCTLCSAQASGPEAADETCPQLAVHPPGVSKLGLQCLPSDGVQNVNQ
Procedure: as §1
CEM-7A cells (2 × 10^6) were suspended in 1 mL HBSS and the assay was initiated by addition of 25 μL 200 μM [^3H]-l-LV; 5,000 pmol (i.e., 5 μM final concentration). Incubations proceeded for 2 min at 37°C in the absence and presence of increasing amounts of unlabelled LV/antifolate drug. Blanks consisted of a separate incubation at 4°C or incubation with 100-fold molar excess of unlabelled l-LV. [^3H]-l-LV influx was terminated by adding 9 mL ice-cold HBSS, centrifugation and an additional wash of the cells with 10 mL ice-cold buffer. Cell pellets were then assessed for radioactivity. Relative affinities for RFC are expressed as the concentration of unlabelled drug necessary to inhibit [^3H]-l-LV uptake by 50%.

colon cancer cell lines = experiment: Growth inhibition, SRB assay, panel of colon cancer cell lines; format: cell-based, human; conditions: selected colon cancer cell lines: WiDr, HT29, SW948 and SW1398 cells; 5 µM l-LV
Procedure: (§2) Briefly, cells were seeded in triplicate in 96-well plates at their pre-established optimal density (CHO cells: 2,500 cells/100 μL; WiDr and HT29: 3,500 cells/100 μL; WiDr-LF/LV, LS174T: 5,000 cells/100 μL; CaCo2, CaCo2-LF/LV, H292, H28 and MSTO-211H: 6,000 cells/100 μL; H460, SW948 and SW1398: 7,000 cells/100 μL) and were allowed to attach for ∼ 24 h at 37°C in 5% CO2 and 100% humidified incubator. Thereafter, 100 μL of drug dilution without LV, or with 5 μM l-LV/5 μM d-LV/10 μM dL-LV (or any LV alone) were added. Cells were allowed to grow for 72 h at 37°C in 5% CO2 and 100% humidity. The t = 0 h control plate consisted of cells plated on the same day as the other cells, but after 24 h at 37°C in 5% CO2 and 100% humidity, only 100 μL medium was added and the cells were fixed immediately with 50% trichloroacetic acid (TCA) in milliQ water (25 μL per well) and put at 4°C for at least 1 h. Plates were washed five times with water and dried. Cells were stained with the SRB protein dye (0.4% (w/v) in 1% acetic acid. Excess dye was washed away four times with 1% acetic acid and plates were dried again. 200 μL of Tris (10 mM Tris (hydroxymethyl)-aminomethane in MQ) was added and optical density (OD) was read at 492 nm after mixing 2–3 min on a plate shaker.

H28 cells = experiment: Growth inhibition, SRB assay, H28 (MPM); format: cell-based, human; conditions: H28, SRB, read-out: IC50, 72 h drug exposure
Procedure: as §2

MSTO-211H cells = experiment: Growth inhibition, SRB assay, MSTO-211H (MPM); format: cell-based, human; conditions: SRB, read-out: IC50, 72 h drug exposure
Procedure: as §2

H460 cells = experiment: Growth inhibition, SRB assay, H460 (NSCLC); format: cell-based, human; conditions: H460, SRB, read-out: IC50, 72 h drug exposure
Procedure: as §2

H292 cells = experiment: Growth inhibition, SRB assay, H292 (NSCLC); format: cell-based, human; conditions: H292, SRB, read-out: IC50, 72 h drug exposure
Procedure: as §2

CHO/C5 cells = experiment: Growth inhibition, SRB assay, CHO/C5 (RFC-deficient); format: cell-based, Chinese hamster
Procedure: as §2

CHO/C5-MOCK cells = experiment: Growth inhibition, SRB assay, CHO/C5-MOCK (empty vector); format: cell-based, Chinese hamster
Procedure: as §2

CHO/C5-PCFT cells = experiment: Growth inhibition, SRB assay, CHO/C5-PCFT (PCFT-transfected); format: cell-based, Chinese hamster
Procedure: as §2

CHO/C5-hRFC cells = experiment: Growth inhibition, SRB assay, CHO/C5-hRFC (human RFC transfected); format: cell-based, Chinese hamster; conditions: for IC50: CHO/C5-hRFC; for Protection by l-LV, increase of the IC50 value: hRFC-transfected cells, 5 µM l-LV
Procedure: as §2

AA8 cells = experiment: Growth inhibition, SRB assay, AA8 (parental CHO); format: cell-based, Chinese hamster; conditions: for IC50: AA8 parental CHO
Procedure: as §2

[2] = Cricetulus griseus, antifolate alone

T2 sequence (P15328 25-257): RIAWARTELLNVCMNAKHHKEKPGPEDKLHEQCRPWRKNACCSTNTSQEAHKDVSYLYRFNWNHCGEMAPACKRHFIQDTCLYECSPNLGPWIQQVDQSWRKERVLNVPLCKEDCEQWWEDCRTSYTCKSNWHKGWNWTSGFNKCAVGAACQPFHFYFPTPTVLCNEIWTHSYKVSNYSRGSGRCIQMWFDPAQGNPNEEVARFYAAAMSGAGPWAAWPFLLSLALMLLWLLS

| Compound | IC50 (CHO/C5 cells; [2]) | IC50 (CHO/C5 cells; antifolate + 5 µM l-LV) | IC50 (CHO/C5-MOCK cells; [2]) | IC50 (CHO/C5-MOCK cells; antifolate + 5 µM l-LV) | IC50 (CHO/C5-PCFT cells; [2]) | IC50 (CHO/C5-PCFT cells; antifolate + 5 µM l-LV) | IC50 (CHO/C5-hRFC cells; antifolate + 5 µM l-LV) | IC50 (CHO/C5-hRFC cells; [2]) | Protection by l-LV, increase of the IC50 value (CHO/C5-hRFC cells) | IC50 (AA8 cells; antifolate + 5 µM l-LV) | IC50 (AA8 cells; [2]) | also measured |
| --- | --- | --- | --- | --- | --- | --- | --- | --- | --- | --- | --- | --- |
| Nc1nc(=O)c2c([nH]1)NC[C@H](CNc1ccc(C(=O)N[C@@H](CCC(=O)O)C(=O)O)cc1)N2C=O [[^3H]-l-LV, [3′,5′,7,9-^3H(N)]-(6S)-Leucovorin] | – | – | – | – | – | – | – | – | – | – | – | PCFT influx rate of [3H]-l-LV at pH 7.4 compared to pH 5.5 (human PCFT; CHO/C5/PCFT cells, 2.5 µM [3H]-l-LV): 11% and 11.5% |
| Nc1nc2c(c(=O)[nH]1)N(C=O)C(CNc1ccc(C(=O)N[C@@H](CCC(=O)O)C(=O)O)cc1)CN2 (stereo partly drawn) [l-LV, 5-formyltetrahydrofolate] | – | – | – | – | – | – | – | – | – | – | – | Molar excess over folic acid required for displacement of [3H]-FA binding from FRα (folate receptor α (FRα)): 15 fold; Relative affinity for FRα (folate receptor α (FRα); 100 pmol [3H]-FA, inverse ratio of amount of drug displacing 50% of [3H]-FA, FA set to 1): 0.073; RFC substrate affinity of l-LV over d-LV [1]: 8 fold; IC50 ([1]; 5 µM [3H]-l-LV, 2 min, 37°C, read-out: Concentration for 50% inhibition of [3H]-l-LV influx (RFC)): 5.5 µM; PCFT substrate affinity of l-LV over d-LV (human PCFT): 3.5 fold; IC50 (human PCFT; CHO/C5/PCFT cells, 2.5 µM [3H]-l-LV, pH 5.5, 3 min, read-out: Concentration for 50% inhibition of PCFT-mediated [3H]-l-LV influx): 4 µM; Modulation (enhanced efficacy) of 5FU (colon cancer cell lines): 2 fold |
| Cc1nc2ccc(CN(C)c3ccc(C(=O)N[C@@H](CCC(=O)O)C(=O)O)s3)cc2c(=O)[nH]1 [RTX, raltitrexed] | 2.73 µM | 6.68 µM | 2.4 µM | > 100 µM | 4.33 µM | 52.6 µM | 11.7 µM | 0.008 µM | 1462 fold | 2.92 µM | 0.019 µM | IC50 (H28 cells; antifolate + 5 µM l-LV): 4.26 µM; IC50 (H28 cells; Homo sapiens, NCI-H28, 72 h, antifolate alone): 0.136 ± 0.016 µM; IC50 (MSTO-211H cells; Homo sapiens, 72 h, antifolate alone): 0.008 ± 0.0005 µM; IC50 (MSTO-211H cells; antifolate + 5 µM l-LV): 4.58 µM; IC50 (H460 cells; antifolate + 5 µM l-LV): 19.8 µM; IC50 (H460 cells; Homo sapiens, NCI-H460, 72 h, antifolate alone): 0.022 ± 0.0009 µM; IC50 (H292 cells; antifolate + 5 µM l-LV): 6.33 µM; IC50 (H292 cells; Homo sapiens, NCI-H292, 72 h, antifolate alone): 0.014 ± 0.0008 µM |
| CN(Cc1cnc2nc(N)nc(N)c2n1)c1ccc(C(=O)N[C@@H](CCC(=O)O)C(=O)O)cc1 [MTX, methotrexate] | 8.93 µM | > 100 µM | 6.67 µM | > 100 µM | 3.39 µM | 41 µM | 1.45 µM | 0.02 µM | 72 fold | 6.6 µM | 0.038 µM | 50% inhibition of [3H]-l-LV influx (RFC), fold higher concentration than l-LV [1]: 3 fold; Fold less active than PLX (AA8 cells; AA8 cells): 10 fold |
